# Like-named read-outs stand apart in the source and are kept apart here.
# Assays:
# Caco-2 cell line [1] = experiment: Nitrite measurement by Griess reaction (•NO production); assay type: cell-based, human; conditions: for Prevention of AgNP-induced •NO production: flavonoids at maximum non-cytotoxic concentrations, Caco-2, 24 h, data not shown
# Protocol: Nitrite measurement was based on the colorimetric detection of the reaction product of nitrite with naphthylethylenediamine dihydrochloride. The concentration of nitrite, which reflects nitric oxide (^•NO) production, was measured in the cell-free supernatants collected from the Caco-2 cell line. […] After the incubation period, 150 μL of culture medium was collected and placed in 96-well plates. […] The absorbance was measured at 570 nm using an automatic plate reader.
# human neutrophils [2] = experiment: Neutrophil viability, PI staining flow cytometry; assay type: cell-based; conditions: PEI 10 μg/mL, AgNO3 3 μg/mL, data not shown
# Protocol: Following exposure, cells were centrifuged (400× g at 20 °C, during 5 min) and the supernatant was discarded. The pellet was resuspended in DPBS solution and centrifuged (200g at 20 °C, during 5 min). After centrifugation, the pellet was resuspended with 100 μL propidium iodide solution (1 µg/mL) and incubated for 15 min in the dark. After this time, 400 μL of DPBS buffer was added and the fluorescence was measured in flow cytometer. To restrict the analysis to neutrophils only, a polygon gate was set according to their light scattering properties (in a forward vs. side scatter plot) excluding cell debris and other blood cells. Fluorescence signals for at least 10,000 cells were collected in logarithmic mode and the data were analyzed using C Flow (Accuri®) software (BD, Becton, Dickinson and Company, Franklin Lakes, NJ, USA).
# Caco-2 cell line [3] = experiment: Annexin V-FITC versus propidium iodide flow cytometry (cell death); conditions: for Apoptosis-preventive effect (apoptotic population versus AgNP controls): flavonoid 25 μM co-incubated 24 h with 4 nm and 19 nm AgNP 20 µg/mL, Caco-2
# Protocol: The evaluation of cell death was analyzed by flow cytometry, following simultaneous staining with propidium iodide (PI) and Annexin V labeled with fluorescein isothiocyanate (FITC), according to a previously described method, using the Annexin V-FITC Apoptosis Detection Kit. Briefly, 5 × 10^5 cells/well were seeded in 6 well plates and exposed to 20 μg/mL AgNP (4 and 19 nm) and/or to the flavonoids quercetin or quercetagetin (25 μM) for 24 h. […] After the 24 h exposure, cell supernatants were discarded, and cells were washed with DPBS buffer and detached from cells plates with trypsin:EDTA solution. Individualized cells were counted in a Neubauer chamber, and after DPBS wash, cells were resuspended at a density of 1 × 10^6 cells/mL binding buffer provided by the kit. Subsequently, 1 × 10^5 cells were transferred to suitable cytometry tubes, and Annexin V-FITC and PI were added. The mixture was incubated for 15 min and at least 10,000 events were immediately read in a BD Accuri™ C6 Plus Flow Cytometer (BD biosciences, Becton, Franklin Lakes, NJ, USA). The green fluorescence corresponding to Annexin-V conjugated with FITC was followed in channel 1 (FL1) and plotted as a histogram of FL1 staining. Fluorescence due to the PI incorporation was followed in channel 3 (FL3).
# human neutrophils [4] = experiment: Neutrophil oxidative burst, DHR oxidation; conditions: for Effect of inhibitors on AgNP-induced DHR oxidation: DPI 10 µM, VAS2870 25 µM, Gö6983 1 µM, added with AgNP 10 µg/mL (4 nm and 19 nm); for Percentage of inhibition at the highest tested concentration: 25 μM flavonoid
# Protocol: All patient-related procedures and protocols were performed in accordance with the Declaration of Helsinki and approved by the Ethics Committee of Centro Hospitalar do Porto. After written informed consent was obtained, venous blood from healthy human volunteers was collected by antecubital phlebotomy into vacuum tubes with K3EDTA. The isolation of human neutrophils was performed by the density gradient centrifugation method, as previously reported by our research group. Cells were resuspended in Tris buffer (25 mM Tris, 1.26 mM CaCl2, 5.37 mM KCl, 0.81 mM MgSO4, 140 mM NaCl and 5.55 mM D-Glucose) and the cell viability and cell yield (number of cells/mL) were determined by the trypan blue exclusion method using a Neubauer chamber.
# The measurement of neutrophil oxidative burst was performed by monitoring the oxidation of DHR, by neutrophil-generated reactive species. Neutrophils (3 × 10^6 cells/mL) were incubated in a humidified incubator, at 37 °C, with 4 nm or 19 nm AgNP (0–10 µg/mL) alone or with flavonoids (0–25 µM) followed by DHR (10 µM) for 1 h 30 min.
# The NADPH oxidase inhibitors, DPI (10 µM) and VAS2870 (25 µM), and the protein kinase C (PKC) inhibitor, Gö6983 (1 µM), were also tested, by their concomitant addition with AgNP (10 µg/mL). The fluorescence was measured in a microplate reader (λexcitation = 507 ± 20 nm/λemmission = 529 ± 20 nm).
# Caco-2 cell line [5] = experiment: MTT reduction assay, cytotoxicity in Caco-2 cells; conditions: for Selected Maximum Concentration (maximum non-cytotoxic flavonoid concentration): Caco-2 cells, 24 h, MTT assay, tested 3.13 to 50 μM; for Protection against AgNP-induced cytotoxicity: 24 h co-incubation with 20 or 50 μg/mL AgNP (4 and 19 nm), non-toxic flavonoid concentrations (quercetagetin 50 µM)
# Protocol: Cells were grown in a 5% CO2 atmosphere at 37 °C. For each experiment, the cells were used when reaching 80% of confluence, which represented 3 to 5 days of differentiation. Then, the proliferating Caco-2 cells were treated 24 h after seeding.
# The MTT reduction assay was used to determine the cytotoxicity of PEI coated-AgNP of two sizes (4 and 19 nm) in the Caco-2 cell line. […] After the exposure period, the culture medium was replaced with fresh medium containing 0.5 mg/mL MTT and the cells were further incubated for 2 h. The resulting dark purple crystals of formazan were then dissolved in DMSO and the absorbance of the corresponding solution, which was directly proportional to the number of living cells, was measured in an automatic plate reader set at a test wavelength of 570 nm and a reference wavelength of 620 nm.
# Caco-2 cells = conditions: cited from earlier work
# [6] = Homo sapiens, Neutrophil, read-out: IC50 (Mean ± SEM), inhibition of AgNP 4 nm-induced oxidative burst, AgNP 4 nm, human neutrophils, DHR
# [7] = Homo sapiens, Neutrophil, read-out: IC50 (Mean ± SEM), inhibition of AgNP 19 nm-induced oxidative burst, AgNP 19 nm, human neutrophils, DHR
# [8] = read-out: IC50 (Mean ± SEM), inhibition of AgNP 4 nm-induced oxidative burst, AgNP 4 nm, human neutrophils, DHR
structure (smiles),measurement,setting,value
"O=[N+]([O-])[O-].[Ag+] [AgNO3, Silver nitrate, reference compound]",•NO production,"Caco-2 cell line [1]; 9 μg/mL AgNO3, 24 h, Caco-2",induced a significant production of ^•NO
same,Neutrophil viability,human neutrophils [2],did not affect neutrophil viability
same,Cell viability (Annexin V/PI),"Caco-2 cell line [3]; PEI 20 μg/mL, AgNO3 4.5 μg/mL, Caco-2, 24 h, data not shown",did not induce significant alterations in cell viability
same,Neutrophil oxidative burst,"human neutrophils [4]; PEI 10 μg/mL, AgNO3 3 μg/mL, data not shown",did not affect neutrophil oxidative burst
"c1ccc2c(c1)[I+]c1ccccc1-2 [DPI, diphenyleneiodonium chloride, reference compound]",Effect of inhibitors on AgNP-induced DHR oxidation,human neutrophils [4],decreased DHR oxidation induced by 4nm and 19 nm AgNP
COc1ccc(-c2cc(=O)c3c(O)cc(O)cc3o2)cc1O [Diosmetin],Percentage of inhibition at the highest tested concentration,"human neutrophils [4]; AgNP 4 nm, human neutrophils, DHR",37 ± 3 %
same,Percentage of inhibition at the highest tested concentration,"human neutrophils [4]; AgNP 19 nm, human neutrophils, DHR",37 ± 7 %
same,IC50,"human neutrophils [4]; Homo sapiens, Neutrophil, read-out: IC50, inhibition of AgNP-induced neutrophil oxidative burst, AgNP of 4 and 19 nm, human neutrophils, DHR",> 25000 nM
O=c1c(O)c(-c2ccc(O)c(O)c2)oc2c(O)c(O)cc(O)c12 [Gossypetin],IC50,"human neutrophils [4]; Homo sapiens, Neutrophil, read-out: IC50 (Mean ± SEM), inhibition of AgNP 4 nm-induced oxidative burst",2100 ± 300 nM
same,IC50,"human neutrophils [4]; Homo sapiens, Neutrophil, read-out: IC50 (Mean ± SEM), inhibition of AgNP 19 nm-induced oxidative burst",4500 ± 1200 nM
"COc1ccc2c(c1)c(C1=C(c3c[nH]c4ccccc34)C(=O)NC1=O)cn2CCCN(C)C [Gö6983, 3-[1-[3-(dimethylamino)propyl]-5-methoxy-1H-indol-3-yl]-4-(1H-indol-3-yl)-1H-pyrrole-2,5-dione, reference compound]",Effect of inhibitors on AgNP-induced DHR oxidation,human neutrophils [4],prevented the activation of neutrophil oxidative burst induced by AgNP
O=c1cc(-c2ccc(O)c(O)c2)oc2cc(O)cc(O)c12 [Luteolin],Selected Maximum Concentration (maximum non-cytotoxic flavonoid concentration),Caco-2 cell line [5],12.5 µM
same,IC50,human neutrophils [4]; [6],1300 ± 200 nM
same,IC50,human neutrophils [4]; [7],1300 ± 200 nM
O=c1c(O)c(-c2ccc(O)cc2O)oc2cc(O)cc(O)c12 [Morin],Selected Maximum Concentration (maximum non-cytotoxic flavonoid concentration),Caco-2 cell line [5],50.0 µM
same,IC50,human neutrophils [4]; [6],1400 ± 400 nM
same,IC50,human neutrophils [4]; [7],1500 ± 400 nM
O=c1c(O)c(-c2cc(O)c(O)c(O)c2)oc2cc(O)cc(O)c12 [Myricetin],Selected Maximum Concentration (maximum non-cytotoxic flavonoid concentration),Caco-2 cell line [5],50.0 µM
same,IC50,human neutrophils [4]; [6],2300 ± 100 nM
same,IC50,human neutrophils [4]; [7],3100 ± 200 nM
O=c1c(O)c(-c2ccc(O)c(O)c2)oc2cc(O)c(O)c(O)c12 [Quercetagetin],Prevention of AgNP-induced •NO production,Caco-2 cell line [1],neither quercetin nor quercetagetin prevented AgNP-induced ^•NO production
same,Percentage of apoptotic cells on co-treatment,"Caco-2 cell line [3]; co-treatment with 4 nm AgNP (20 μg/mL), Caco-2, 24 h",increased the percentage of apoptotic cells
same,Apoptosis-preventive effect (apoptotic population versus AgNP controls),Caco-2 cell line [3],did not significantly decrease the apoptotic population
same,Protection against AgNP-induced cytotoxicity,Caco-2 cell line [5],prevented the cytotoxic effects of the two sizes of AgNP
same,Protection against AgNP-induced cytotoxicity,Caco-2 cell line [5]; listed as quercetagetin,significantly reduced the cell death induced by AgNP of 4 and 19 nm
same,Selected Maximum Concentration (maximum non-cytotoxic flavonoid concentration),Caco-2 cell line [5],50.0 µM
same,IC50,human neutrophils [4]; [6],< 1000 nM
same,IC50,human neutrophils [4]; [7],3000 ± 200 nM
same,IC50,human neutrophils [4]; [8],530 ± 60 nM
O=c1c(O)c(-c2ccc(O)c(O)c2)oc2cc(O)cc(O)c12 [Quercetin],Prevention of AgNP-induced •NO production,Caco-2 cell line [1],neither quercetin nor quercetagetin prevented AgNP-induced ^•NO production
same,Reversal of loss of viability induced by AgNP,"Caco-2 cells; 10 and 50 µM, Caco-2 cells treated with AgNP < 20 nm (30–90 μg/mL)",most effectively reversed the loss of viability induced by AgNP
same,Reversal of toxicity induced by AgNP,"Caco-2 cells; quercetin 50 µM, AgNP ≥45 μg/mL, ref Martirosyan et al.",successfully reverted the toxicity induced by AgNP
same,Apoptosis-preventive effect (apoptotic population versus AgNP controls),Caco-2 cell line [3],reversed the pro-apoptotic effect of AgNP
same,Protection against AgNP-induced cytotoxicity,Caco-2 cell line [5],partially prevented AgNP cytotoxicity
same,Protection against AgNP-induced cytotoxicity,Caco-2 cell line [5]; listed as quercetin,significantly reduced the cell death induced by AgNP of 4 and 19 nm
same,Selected Maximum Concentration (maximum non-cytotoxic flavonoid concentration),Caco-2 cell line [5],25.0 µM
same,IC50,human neutrophils [4]; [6],< 1000 nM
same,IC50,human neutrophils [4]; [7],3100 ± 600 nM
same,IC50,human neutrophils [4]; [8],940 ± 90 nM
"c1ccc(Cn2nnc3c(Sc4nc5ccccc5o4)ncnc32)cc1 [VAS2870, reference compound]",Effect of inhibitors on AgNP-induced DHR oxidation,human neutrophils [4],decreased DHR oxidation induced by 4nm and 19 nm AgNP

# From paper PMC8588041, “Protective Role of Flavonoids against Intestinal Pro-Inflammatory Effects of Silver Nanoparticles” (Molecules, 2021)
